Test system: C57BL/6 mice
Test: In vivo toxicity in C57BL/6 mice (body weight, serum cytokines, liver and kidney function, H&E)
Parameters: species or system mouse
Conditions: for Body weight: C57BL/6 mice, 6 days, MTOB 400 and 800, NSC95397 2 and 4, C646 5 and 10, A-485 40 and 80, TPCA1 10 and 20, BOT64 30 and 60 mg/kg
Description: Whole blood samples were allowed to stand undisturbed at room temperature for 15 min before being centrifuged at 1,000 × g for 10 min. The supernatant serum and BALF were used to measure concentrations of IL-1β, IL-6, IL-15, IL-18, and TNF-α with specific enzyme-linked immunosorbent assay (ELISA) kits as per manufacturer guidelines. The ELISA kits used were: IL-1β (Thermo Fisher; #KMC0011), IL-6 (Thermo Fisher; #KMC0061), IL-15 (Abcam; Shanghai, China; #ab275898), IL-18 (Thermo Fisher; #BMS618-3), and TNF-α (Thermo Fisher; #BMS607-3). Total BALF protein levels were measured using the BCA Protein Assay Kit (Abcam; #ab102536) according to the manufacturer’s protocol.
Serum activities or levels of alanine aminotransferase (ALT), aspartate aminotransferase (AST), alkaline phosphatase (ALP), blood urea nitrogen (BUN), and creatinine were measured using commercially available assay kits, including the ALT Activity Assay Kit (Abcam; #ab105134), AST Activity Assay Kit (Abcam; #ab105135), ALP Assay Kit (Abcam; #ab83369), BUN Colorimetric Detection Kit (Thermo Fisher; #EIABUN), and Creatinine Assay Kit (Abcam; #ab65340). All experimental procedures were conducted according to the respective manufacturer’s protocols.
Lung, heart, liver, and kidney tissues were collected from various groups of mice, including ARDS, ARDS + MTOB, ARDS + NSC95397, ARDS + C646, ARDS + A-485, ARDS + TPCA1, ARDS + BOT64, and ARDS + PNSC928. The tissues were fixed in 10% neutral-buffered formalin (Sigma-Aldrich; #HT501128) for 48 h, then dehydrated through a graded ethanol series (70%, 80%, 90%, and 100%, for 30 min each). The dehydrated tissues were embedded in paraffin blocks and allowed to solidify. The paraffin blocks were sectioned at 5 μm, with the sections floated on a water bath to remove wrinkles before being transferred onto glass slides. The slides were dried, dewaxed with xylene, and rehydrated through a reverse ethanol series (100%, 90%, 80%, and 70%, for 30 min each), followed by a final rinse in distilled water. The rehydrated sections were stained using the Hematoxylin and Eosin Kit (Abcam; #ab245880) according to the manufacturer’s guidelines. After staining, the sections were dehydrated through a graded ethanol series (70%, 80%, 90%, and 100%, for 30 min each), then cleared with xylene. The sections were mounted with a mounting medium (Abcam; #ab64230) and imaged using a Nikon light microscope for tissue morphology.
C57BL/6 mice were administrated with MTOB (400 and 800 mg/kg), NSC95397 (2 and 4 mg/kg), C646 (5 and 10 mg/kg), A-485 (40 and 80 mg/kg), TPCA1 (10 and 20 mg/kg), BOT64 (30 and 60 mg/kg) for a duration of 6 days (n = 10 for each group). (A-F) Body weights were measured every two days. (G-K) Serum concentrations of different groups of mice. (G) IL-1β, (H) IL-6, (I) IL-15, (J) IL-18, and (K) TNF-α. *P < 0.05
C57BL/6 mice were administrated with MTOB (400 and 800 mg/kg), NSC95397 (2 and 4 mg/kg), C646 (5 and 10 mg/kg), A-485 (40 and 80 mg/kg), TPCA1 (10 and 20 mg/kg), and BOT64 (30 and 60 mg/kg) for a duration of 6 days (n=10 for each group). (A) Serum concentration of IFN-γ in different groups of mice. (B) Serum BUN concentration. (C) Activities of ALT, AST, and ALP in serum. (D) Serum creatinine concentration. (E) Representative H&E staining images of lung, liver, kidney, and heart from the following groups of mice: Control, MTOB (800 mg/kg), NSC95397 (4 mg/kg), C646 (10 mg/kg), A-485 (80 mg/kg), TPCA1 (20 mg/kg), and BOT64 (60 mg/kg). Bars=100 μm. For the significant difference analysis in B-D, all drug-treated groups were compared with the Control group of mice. *P<0.05; **P<0.01; ***P<0.001.
[…] (A) Serum ALT activity. (B) Serum AST activity. (C) Serum ALP activity. (D) Serum BUN concentration. (E) Serum creatinine concentration. (F) Body weights were recorded every two days. (G) Representative H&E staining images of lung, liver, kidney, and heart. Bars=100 μm.

[1] = PNSC928 0, 5, 10, and 20 mg/kg at two-day intervals for 6 days

Compound | Body weight | other results
CC(=CCCC1=CCC(C2COC(=O)C2)OC1O)CCC1=C(C)CCCC1(C)C (stereo not shown) [PNSC928] |  | Activities and levels of ALT, AST, ALP, BUN, and creatinine [1]: no discernible alterations; Histological examination of lung, heart, liver, and kidney [1]: no conspicuous damage; Mouse body weights [1]: did not affect mouse body weights; Behavioral activities (feeding, balance ability, sleeping patterns) (PNSC928 0, 5, 10, and 20 mg/kg at two-day intervals for 6 days, data not shown): did not affect
NC(=O)Nc1sc(-c2ccc(F)cc2)cc1C(N)=O [TPCA1] | significant decrease in body weight | 
CC1(C)CC(=O)c2sc(=Nc3ccccc3)oc2C1 [BOT64] | significant decrease in body weight | 
CNC(=O)Nc1ccc2c(c1)CC[C@@]21OC(=O)N(CC(=O)N(Cc2ccc(F)cc2)[C@@H](C)C(F)(F)F)C1=O [A-485] | significant decrease in body weight | 
CSCCC(=O)C(=O)O [MTOB] | significant decrease in body weight | 
O=C1C(SCCO)=C(SCCO)C(=O)c2ccccc21 [NSC95397] | significant decrease in body weight | 
CC1=NN(c2ccc(C(=O)O)cc2)C(=O)/C1=C\c1ccc(-c2cc(C)c(C)cc2[N+](=O)[O-])o1 [C646] | significant decrease in body weight | 
